Results on 13 compounds are retold here after patent US12370182B2, “Bicyclic derivatives as GABAA A5 receptor modulators” (RICHTER GEDEON NYRT., priority 2018, dated 2025).

The target of experiment [1] is T1, human recombinant GABAA α5β3γ2 receptor (Homo sapiens (Human), UniProt P18507+P31644). Put plainly: Functional assay, QPatch automated patch clamp, GABA-evoked currents. Format: cell-based. The note with it: test compound 10 μM, 1 μM GABA, HEK293 cells, percentage modulation of peak current. As for the experimental part:
(§1) Human HEK293 cell lines expressing GABAA α1β3γ2 and GABAAα5β3γ2 receptors were used in functional assays using the QPatch automated patch clamp system.
(§2) HEK293 cell lines stably expressing human recombinant GABAA α1β3γ2 receptor subunits (Millipore, CYL3073) or human recombinant GABAA α5β3γ2 receptor subunits (Millipore, CYL3053) were cultured in DMEM supplemented with 10% FBS (Gibco), passed two times per week and plated on Petri dishes previously coated with poly-d-lysine.
(§3) Automated whole-cell patch clamp recordings were made from cells 2-4 days after plating. Cells were detached using trypsin/EDTA (Sigma) treatment (2 minutes in 0.25% trypsin at 37° C.), then, after centrifugation (125 G, 3 min, 2×), resuspended in a serum-free based media (Gibco, CHO—S-SFM-II) containing 12.5 mM HEPES, 1× penicillin-streptomycin-amphotericin (SigmaMix) and soybean trypsin inhibitor (Sigma, 0.04 mg/ml).
(§4) Cell suspension, as well as the extracellular solution (130 mM NaCl, 5 mM KCl, 5.1 mM HEPES, 4.9 mM HEPES-Na, 10 mM CaCl2), 2 mM MgCl2, 10 mM glucose and 0.1% DMSO, pH=7.35-7.4) and the intracellular solution (80 mM KCl, 50 mM KF, 36 mM KOH, 10 mM EGTA, 10 mM HEPES, 1.75 mM MgCl2, 0.5 mM CaCl2), 4 mM Na2ATP. 14 mM phosphocreatine, 50 U/ml creatine-phosphokinase, 0.3 mM GTP, pH=7.25-7.3) were added to the QPatch-HTX automated patch clamp system (Sophion) in single-cell mode at room temperature. […] At the end of the experiment 100 μM GABA was applied to saturate the GABA-response and to assess the efficacy of the control GABA application.
(§5) The percentage modulation was calculated from the comparison of GABA-evoked peak current amplitudes in the presence and absence of the test compound.

Experiment [2] addresses human recombinant GABAA α1β3γ2 receptor (Homo sapiens (Human), UniProt P14867+P18507). The description is as above. Format: cell-based. The note with it: test compound 10 μM, 1 μM GABA, HEK293 cells, percentage modulation of peak current. The procedure:
as §1, §2, §3, §4, §5

Experiment [3] concerns the target T1, human recombinant GABAA α5β3γ2 receptor. Put plainly: Binding assay, [3H]Ro151788 displacement on membranes of HEK cells. The note with it: 0.5 nM [3H]Ro151788, 60 minutes at 4° C., Cheng-Prusoff; read-out: hGABAA α5 Ki. The essentials: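 HEK-cell membranes with recombinant human α5β3γ2 incubated 60 min at 4 °C with 0.5 nM [3H]Ro151788 in 50 mM Tris pH 7.4, 100 mM KCl; nonspecific binding with 10 μM diazepam. Filtration, scintillation count; % inhibition of specific binding, IC50 from ≥6 concentrations in triplicate, Ki via Cheng-Prusoff.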

Sequence of human recombinant GABAA α1β3γ2 receptor (P14867 28-456): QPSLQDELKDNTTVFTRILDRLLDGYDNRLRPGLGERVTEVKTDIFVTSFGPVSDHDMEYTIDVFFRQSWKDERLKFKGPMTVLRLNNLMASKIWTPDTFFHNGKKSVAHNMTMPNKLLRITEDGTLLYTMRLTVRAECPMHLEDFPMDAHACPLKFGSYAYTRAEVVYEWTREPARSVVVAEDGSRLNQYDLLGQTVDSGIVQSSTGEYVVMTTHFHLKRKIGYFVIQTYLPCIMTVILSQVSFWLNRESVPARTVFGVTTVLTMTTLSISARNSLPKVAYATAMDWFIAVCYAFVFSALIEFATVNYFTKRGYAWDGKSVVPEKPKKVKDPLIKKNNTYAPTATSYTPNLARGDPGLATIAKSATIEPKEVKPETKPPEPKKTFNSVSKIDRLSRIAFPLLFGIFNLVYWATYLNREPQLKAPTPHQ
Sequence of human recombinant GABAA α1β3γ2 receptor (P28472 26-473 partner): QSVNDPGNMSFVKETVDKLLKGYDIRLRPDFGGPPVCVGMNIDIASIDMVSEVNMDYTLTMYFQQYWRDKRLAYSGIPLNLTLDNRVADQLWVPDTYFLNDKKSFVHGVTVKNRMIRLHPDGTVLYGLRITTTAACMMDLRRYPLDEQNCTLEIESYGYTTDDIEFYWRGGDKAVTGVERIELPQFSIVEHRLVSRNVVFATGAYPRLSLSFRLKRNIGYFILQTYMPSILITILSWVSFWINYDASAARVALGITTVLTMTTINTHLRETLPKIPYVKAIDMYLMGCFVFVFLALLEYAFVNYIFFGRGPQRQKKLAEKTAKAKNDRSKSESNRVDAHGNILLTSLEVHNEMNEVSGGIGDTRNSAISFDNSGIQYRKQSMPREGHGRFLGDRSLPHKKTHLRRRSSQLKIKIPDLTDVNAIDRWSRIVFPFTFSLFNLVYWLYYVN
Sequence of human recombinant GABAA α1β3γ2 receptor (P18507 40-475): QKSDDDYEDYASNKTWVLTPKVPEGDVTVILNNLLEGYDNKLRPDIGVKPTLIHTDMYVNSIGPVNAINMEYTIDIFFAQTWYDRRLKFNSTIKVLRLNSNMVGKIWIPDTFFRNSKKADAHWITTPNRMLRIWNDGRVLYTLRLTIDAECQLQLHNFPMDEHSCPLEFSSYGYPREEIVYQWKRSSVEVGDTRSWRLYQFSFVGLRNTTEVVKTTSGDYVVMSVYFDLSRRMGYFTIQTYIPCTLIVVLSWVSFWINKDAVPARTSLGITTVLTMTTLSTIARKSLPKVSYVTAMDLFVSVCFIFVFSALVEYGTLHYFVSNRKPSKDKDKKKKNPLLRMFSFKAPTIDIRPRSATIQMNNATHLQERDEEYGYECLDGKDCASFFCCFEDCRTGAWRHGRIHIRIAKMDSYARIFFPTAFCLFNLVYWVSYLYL
T1 sequence (P31644 32-462): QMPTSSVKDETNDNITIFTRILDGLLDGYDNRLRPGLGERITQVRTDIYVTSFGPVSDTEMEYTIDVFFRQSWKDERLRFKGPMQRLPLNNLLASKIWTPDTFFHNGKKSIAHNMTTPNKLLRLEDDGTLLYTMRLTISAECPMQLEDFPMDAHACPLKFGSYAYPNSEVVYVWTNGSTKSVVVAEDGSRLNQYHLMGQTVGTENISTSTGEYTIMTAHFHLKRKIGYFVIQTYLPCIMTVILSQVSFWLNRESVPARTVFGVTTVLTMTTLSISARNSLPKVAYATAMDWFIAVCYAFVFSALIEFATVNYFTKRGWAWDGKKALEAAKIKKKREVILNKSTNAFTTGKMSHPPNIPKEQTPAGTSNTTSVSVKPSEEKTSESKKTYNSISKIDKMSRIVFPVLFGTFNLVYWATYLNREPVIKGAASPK
T1 sequence (P28472 26-473 partner): as the sequence (P28472 26-473 partner) above
T1 sequence (P18507 40-475): as the sequence (P18507 40-475) above

Take `CC(=O)N1CCc2nc(OCc3c(C)nnn3-c3ccc(F)cc3)ccc2C1` [Example 14, 1-(2-{[1-(4-fluorophenyl)-4-methyl-1H-1,2,3-triazol-5-yl]methoxy}-5,6,7,8-tetrahydro-1,6-naphthyridin-6-yl)ethan-1-one]: the “hGABAA α5 efficacy” value in experiment [1] is −36%. The “hGABAA α1 efficacy” value in experiment [2] came out at 0%. The Ki in experiment [3] was 28 nM.

As for `Cc1nnn(-c2ccc(F)cc2)c1COc1ccc2c(n1)CCN(C(=O)C1CCCO1)C2` (stereo not drawn) [Example 15, 2-{[1-(4-fluorophenyl)-4-methyl-1H-1,2,3-triazol-5-yl]methoxy}-6-(oxolane-2-carbonyl)-5,6,7,8-tetrahydro-1,6-naphthyridine], the “hGABAA α5 efficacy” value in experiment [1] is given as −43%. Also, the “hGABAA α1 efficacy” value in experiment [2] is −8%. In experiment [3], the Ki was found to be 42 nM.

In the case of `Cc1nnn(-c2ccc(F)cc2)c1COc1ccc2c(n1)CCN(C(=O)C1CCOC1)C2` (stereo not drawn) [Example 16, 2-{[1-(4-fluorophenyl)-4-methyl-1H-1,2,3-triazol-5-yl]methoxy}-6-(oxolane-3-carbonyl)-5,6,7,8-tetrahydro-1,6-naphthyridine], in experiment [1], the “hGABAA α5 efficacy” value was −39%. In addition, the “hGABAA α1 efficacy” value in experiment [2] was −7%. For the same compound, in experiment [3], the Ki is 42 nM.

In the case of `Cc1nnn(-c2ccc(F)cc2)c1COc1ccc2c(n1)CCN(C(=O)[C@@H]1CCOC1)C2` [Example 17, 2-{[1-(4-fluorophenyl)-4-methyl-1H-1,2,3-triazol-5-yl]methoxy}-6-[(3R)-oxolane-3-carbonyl]-5,6,7,8-tetrahydro-1,6-naphthyridine], the “hGABAA α5 efficacy” value in experiment [1] is listed as −37%. Besides, in experiment [2], the “hGABAA α1 efficacy” value was −6%. Moreover, in experiment [3], the Ki turned out to be 69 nM.

`Cc1nnn(-c2ccc(F)cc2)c1COc1ccc2c(n1)CCN(C(=O)[C@H]1CCOC1)C2` [Example 18, 2-{[1-(4-fluorophenyl)-4-methyl-1H-1,2,3-triazol-5-yl]methoxy}-6-[(3S)-oxolane-3-carbonyl]-5,6,7,8-tetrahydro-1,6-naphthyridine]: in experiment [1], the “hGABAA α5 efficacy” value is listed as −45%. In addition, the “hGABAA α1 efficacy” value in experiment [2] is −5%. Further, the Ki in experiment [3] is 50 nM.

As to `Cc1nnn(-c2ccc(F)cc2)c1COc1ccc2c(n1)CCN(C(=O)C1CCS(=O)(=O)CC1)C2` [Example 23, 4-(2-{[1-(4-fluorophenyl)-4-methyl-1H-1,2,3-triazol-5-yl]methoxy}-5,6,7,8-tetrahydro-1,6-naphthyridine-6-carbonyl)-1lambda6-thiane-1,1-dione], the “hGABAA α5 efficacy” value in experiment [1] is listed as −47%. For the same compound, in experiment [2], the “hGABAA α1 efficacy” value is on record as −4%. Moreover, the inhibition constant (Ki) in experiment [3] was 45 nM.

As for `Cc1nnn(-c2ccc(F)cc2)c1COc1ccc2c(n1)CCN(C(=O)C1CCOCC1)C2` [Example 28, 2-{[1-(4-fluorophenyl)-4-methyl-1H-1,2,3-triazol-5-yl]methoxy}-6-(oxane-4-carbonyl)-5,6,7,8-tetrahydro-1,6-naphthyridine], the “hGABAA α5 efficacy” value in experiment [1] is listed as −40%. In addition, in experiment [2], the “hGABAA α1 efficacy” value is reported as −6%. For the same compound, the Ki in experiment [3] amounted to 43 nM.

Consider `CC(=O)N1Cc2ccc(OCc3c(C)nnn3-c3ccc(F)cc3)nc2C1` [Example 45, 1-(2-{[1-(4-fluorophenyl)-4-methyl-1H-1,2,3-triazol-5-yl]methoxy}-5H,6H,7H-pyrrolo[3,4-b]pyridin-6-yl)ethan-1-one], for which the “hGABAA α5 efficacy” value in experiment [1] is −30%. Besides, the “hGABAA α1 efficacy” value in experiment [2] is −7%. Moreover, in experiment [3], the Ki came to 3.2 nM.

For the compound `Cc1nnn(-c2ccc(F)cc2)c1COc1ccc2c(n1)CN(C(=O)C1CC1)C2` [Example 47, cyclopropyl(2-{[1-(4-fluorophenyl)-4-methyl-1H-1,2,3-triazol-5-yl]methoxy}-5,7-dihydro-6H-pyrrolo[3,4-b]pyridin-6-yl)methanone], the “hGABAA α5 efficacy” value in experiment [1] is given as −34%. Also, the “hGABAA α1 efficacy” value in experiment [2] is reported as −10%. The Ki in experiment [3] turned out to be 7.2 nM.

For `Cc1nnn(-c2ccc(F)cc2)c1COc1ccc2c(n1)CN(C(=O)CC(C)C)C2` [Example 56, 1-(2-{[1-(4-fluorophenyl)-4-methyl-1H-1,2,3-triazol-5-yl]methoxy}-5H,6H,7H-pyrrolo[3,4-b]pyridin-6-yl)-3-methylbutan-1-one], the “hGABAA α5 efficacy” value in experiment [1] is listed as −40%. Further, in experiment [2], the “hGABAA α1 efficacy” value is −14%. Further, in experiment [3], the Ki came out at 17 nM.

Take `Cc1nnn(-c2ccc(F)cc2)c1COc1ccc2c(n1)CN(C(=O)C1CCCO1)C2` (stereo not drawn) [Example 61, 1-(4-fluorophenyl)-4-methyl-5-({[6-(oxolane-2-carbonyl)-5H,6H,7H-pyrrolo[3,4-b]pyridin-2-yl]oxy}methyl)-1H-1,2,3-triazole]: in experiment [1], the “hGABAA α5 efficacy” value is given as −41%. For the same compound, the “hGABAA α1 efficacy” value in experiment [2] is −20%. In addition, the Ki in experiment [3] was 4.8 nM.

As to `Cc1nnn(-c2ccc(F)cc2)c1COc1ccc2c(n1)CCN(C(=O)NC1CC(=O)N(C)C1)C2` (stereo not drawn) [Example 75, 2-{[1-(4-fluorophenyl)-4-methyl-1H-1,2,3-triazol-5-yl]methoxy}-N-(1-methyl-5-oxopyrrolidin-3-yl)-5,6,7,8-tetrahydro-1,6-naphthyridine-6-carboxamide], the “hGABAA α5 efficacy” value in experiment [1] is −35%. The “hGABAA α1 efficacy” value in experiment [2] is reported as −3%. Besides, the Ki in experiment [3] was found to be 38 nM.

As for `Cc1nnn(-c2ccc(F)cc2)c1COc1ccc2c(n1)CCN(C(=O)NC1CCOC1)C2` (stereo not drawn) [Example 78, 2-{[1-(4-fluorophenyl)-4-methyl-1H-1,2,3-triazol-5-yl]methoxy}-N-(oxolan-3-yl)-5,6,7,8-tetrahydro-1,6-naphthyridine-6-carboxamide], in experiment [1], the “hGABAA α5 efficacy” value is listed as −34%. The “hGABAA α1 efficacy” value in experiment [2] is reported as −3%. For the same compound, the Ki in experiment [3] came out at 28 nM.
